# Results published in ChEMBL document CHEMBL5212743, “Selectivity Literature for EUbOPEN Chemogenomics Library wave 3” (2023).
# Positions count from the first letter of the chain named.
# What was measured:
# [1] = biological target: Serine/threonine-protein kinase Nek6 (Homo sapiens) (UniProt Q9HC98); test: Selectivity interaction (Kinase panel (University of Dundee)) EUB0000169b NEK6; details: at 10 µM
# [2] = tested on: Receptor-type tyrosine-protein kinase FLT3 (Homo sapiens), P36888 [UNDEFINED MUTATION]; test: (§1) Selectivity interaction (KinomeScan (DiscoverX)) EUB0000138c FLT3; details: at 100 nM
# [3] = tested on: T1, Receptor-type tyrosine-protein kinase FLT3 (Homo sapiens), P36888 [N841I]; test: as §1; details: at 100 nM
# T1 sequence (whole entry): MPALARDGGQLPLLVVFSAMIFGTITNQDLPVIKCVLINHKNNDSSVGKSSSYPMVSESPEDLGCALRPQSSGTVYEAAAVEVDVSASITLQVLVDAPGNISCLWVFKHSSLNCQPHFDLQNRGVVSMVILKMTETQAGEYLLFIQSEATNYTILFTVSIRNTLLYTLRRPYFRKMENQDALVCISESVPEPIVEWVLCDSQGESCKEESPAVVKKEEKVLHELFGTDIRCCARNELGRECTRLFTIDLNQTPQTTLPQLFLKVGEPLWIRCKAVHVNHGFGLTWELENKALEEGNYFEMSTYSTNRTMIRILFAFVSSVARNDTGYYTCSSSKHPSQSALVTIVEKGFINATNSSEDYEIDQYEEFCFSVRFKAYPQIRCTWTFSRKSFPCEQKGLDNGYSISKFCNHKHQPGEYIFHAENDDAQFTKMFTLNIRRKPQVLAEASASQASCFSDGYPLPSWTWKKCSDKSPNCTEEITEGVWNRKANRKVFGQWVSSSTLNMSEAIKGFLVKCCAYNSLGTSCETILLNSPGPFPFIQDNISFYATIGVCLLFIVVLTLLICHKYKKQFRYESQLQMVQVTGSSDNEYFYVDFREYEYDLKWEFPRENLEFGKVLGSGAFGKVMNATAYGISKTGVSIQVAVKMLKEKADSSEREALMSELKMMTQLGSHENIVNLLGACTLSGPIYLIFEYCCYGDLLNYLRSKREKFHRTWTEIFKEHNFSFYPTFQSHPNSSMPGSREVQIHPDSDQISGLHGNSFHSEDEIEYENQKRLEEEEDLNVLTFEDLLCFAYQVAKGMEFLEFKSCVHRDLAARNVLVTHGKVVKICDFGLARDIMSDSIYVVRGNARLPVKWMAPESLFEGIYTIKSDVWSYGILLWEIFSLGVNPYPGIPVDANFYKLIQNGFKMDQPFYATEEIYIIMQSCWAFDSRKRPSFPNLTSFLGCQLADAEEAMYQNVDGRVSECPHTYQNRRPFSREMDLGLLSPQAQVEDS
# [4] = tested on: T2, Receptor-type tyrosine-protein kinase FLT3 (Homo sapiens), P36888 [D835Y]; test: as §1; details: at 100 nM
# T2 sequence (whole entry): T1 sequence (whole entry) with D835Y, I841N
# [5] = tested on: T3, Receptor-type tyrosine-protein kinase FLT3 (Homo sapiens), P36888 [D835V]; test: as §1; details: at 100 nM
# T3 sequence (whole entry): T1 sequence (whole entry) with D835V, I841N
# Sequence of Serine/threonine-protein kinase Nek6 (Homo sapiens) (Q9HC98 whole entry): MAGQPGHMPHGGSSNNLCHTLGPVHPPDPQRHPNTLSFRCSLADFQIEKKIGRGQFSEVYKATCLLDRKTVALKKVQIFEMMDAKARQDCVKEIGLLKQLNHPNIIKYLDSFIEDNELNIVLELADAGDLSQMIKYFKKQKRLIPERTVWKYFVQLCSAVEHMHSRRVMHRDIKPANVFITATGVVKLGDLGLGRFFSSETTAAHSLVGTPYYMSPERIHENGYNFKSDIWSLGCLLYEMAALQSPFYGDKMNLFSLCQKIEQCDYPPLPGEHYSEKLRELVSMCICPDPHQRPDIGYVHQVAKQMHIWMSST
% of control [1] [%],% of control [2] [%],% of control [3] [%],% of control [4] [%],% of control [5] [%],SMILES
110,–,–,–,–,CC[C@@H]1C(=O)N(C)c2cnc(Nc3ccc(C(=O)NC4CCN(C)CC4)cc3OC)nc2N1C1CCCC1
–,9,0,5.9,0.2,CNC(=O)c1ccc(Nc2ncc(C(F)(F)F)c(NCc3nccnc3N(C)S(C)(=O)=O)n2)cc1 [DEFACTINIB]
